{"source": "ChEMBL document CHEMBL5108078", "about": "“Design and Synthesis of Phenyl Sulfide-Based Cationic Amphiphiles as Membrane-Targeting Antimicrobial Agents against Gram-Positive Pathogens” (J Med Chem, 2022)", "key": {"[1]": {"experiment": "Hemolytic activity in rabbit RBC incubated for 1 hr by microplate reader analysis", "type": "toxicity, cell-based, Oryctolagus cuniculus, Erythrocyte", "conditions": "rabbit red blood cells (erythrocytes)"}, "Staphylococcus aureus [2]": {"system": "Staphylococcus aureus", "experiment": "Antibacterial activity against Staphylococcus aureus ATCC 29213 assessed as inhibition of bacterial growth incubated for 24 hrs by microbroth dilution method", "type": "functional"}, "Staphylococcus aureus [3]": {"system": "Staphylococcus aureus", "experiment": "Antibacterial activity against methicillin resistant Staphylococcus aureus N315 assessed as inhibition of bacterial growth incubated for 24 hrs by microbroth dilution method", "type": "functional"}, "Staphylococcus aureus [4]": {"system": "Staphylococcus aureus", "experiment": "Antibacterial activity against methicillin resistant Staphylococcus aureus NCTC10442 assessed as inhibition of bacterial growth incubated for 24 hrs by microbroth dilution method", "type": "functional"}}}
{"smiles": "CCCCN(CCCC)CCCCOc1ccc(C(C)(C)CC(C)(C)C)cc1Sc1cc(C(C)(C)CC(C)(C)C)ccc1OCCCCN(CCCC)CCCC", "values": [{"measurement": "HC50 at 1 h", "setting": "[1]", "value": "> 200", "unit": "µg/mL"}, {"measurement": "MIC", "setting": "Staphylococcus aureus [2]", "value": "> 50", "unit": "µg/mL"}, {"measurement": "MIC", "setting": "Staphylococcus aureus [3]", "value": "> 50", "unit": "µg/mL"}, {"measurement": "MIC", "setting": "Staphylococcus aureus [4]", "value": "> 50", "unit": "µg/mL"}]}
{"smiles": "CCCN(CCC)CCCCOc1ccc(C(C)(C)CC(C)(C)C)cc1Sc1cc(C(C)(C)CC(C)(C)C)ccc1OCCCCN(CCC)CCC", "values": [{"measurement": "HC50 at 1 h", "setting": "[1]", "value": "> 200", "unit": "µg/mL"}, {"measurement": "MIC", "setting": "Staphylococcus aureus [2]", "value": "> 50", "unit": "µg/mL"}, {"measurement": "MIC", "setting": "Staphylococcus aureus [3]", "value": "> 50", "unit": "µg/mL"}, {"measurement": "MIC", "setting": "Staphylococcus aureus [4]", "value": "> 50", "unit": "µg/mL"}]}
{"smiles": "COC(=O)[C@H](CCCNC(=N)N)NC(=O)[C@H](CCCNC(=N)N)NC(=O)[C@H](CCCNC(=N)N)NC(=O)COc1ccc(C(C)(C)CC(C)(C)C)cc1Sc1cc(C(C)(C)CC(C)(C)C)ccc1OCC(=O)N[C@@H](CCCNC(=N)N)C(=O)N[C@@H](CCCNC(=N)N)C(=O)N[C@@H](CCCNC(=N)N)C(=O)OC", "values": [{"measurement": "HC50 at 1 h", "setting": "[1]", "value": "> 200", "unit": "µg/mL"}, {"measurement": "MIC", "setting": "Staphylococcus aureus [2]", "value": 6.25, "unit": "µg/mL"}, {"measurement": "MIC", "setting": "Staphylococcus aureus [3]", "value": 6.25, "unit": "µg/mL"}, {"measurement": "MIC", "setting": "Staphylococcus aureus [4]", "value": 3.12, "unit": "µg/mL"}]}
{"smiles": "CCN(CC)CCCCOc1ccc(C(C)(C)CC(C)(C)C)cc1Sc1cc(C(C)(C)CC(C)(C)C)ccc1OCCCCN(CC)CC", "values": [{"measurement": "HC50 at 1 h", "setting": "[1]", "value": 67.9, "unit": "µg/mL"}, {"measurement": "MIC", "setting": "Staphylococcus aureus [2]", "value": 3.12, "unit": "µg/mL"}, {"measurement": "MIC", "setting": "Staphylococcus aureus [3]", "value": 1.56, "unit": "µg/mL"}, {"measurement": "MIC", "setting": "Staphylococcus aureus [4]", "value": 3.12, "unit": "µg/mL"}]}
{"smiles": "CC(C)(C)CC(C)(C)c1ccc(OCCCCN2CCCCC2)c(Sc2cc(C(C)(C)CC(C)(C)C)ccc2OCCCCN2CCCCC2)c1", "values": [{"measurement": "HC50 at 1 h", "setting": "[1]", "value": "> 200", "unit": "µg/mL"}, {"measurement": "MIC", "setting": "Staphylococcus aureus [2]", "value": 12.5, "unit": "µg/mL"}, {"measurement": "MIC", "setting": "Staphylococcus aureus [3]", "value": 12.5, "unit": "µg/mL"}, {"measurement": "MIC", "setting": "Staphylococcus aureus [4]", "value": 25, "unit": "µg/mL"}]}
{"smiles": "CC(C)(C)CC(C)(C)c1ccc(OCC(=O)N[C@@H](CCCNC(=N)N)C(=O)N[C@@H](CCCNC(=N)N)C(N)=O)c(Sc2cc(C(C)(C)CC(C)(C)C)ccc2OCC(=O)N[C@@H](CCCNC(=N)N)C(=O)N[C@@H](CCCNC(=N)N)C(N)=O)c1", "values": [{"measurement": "HC50 at 1 h", "setting": "[1]", "value": "> 200", "unit": "µg/mL"}, {"measurement": "MIC", "setting": "Staphylococcus aureus [2]", "value": 6.25, "unit": "µg/mL"}, {"measurement": "MIC", "setting": "Staphylococcus aureus [3]", "value": 6.25, "unit": "µg/mL"}, {"measurement": "MIC", "setting": "Staphylococcus aureus [4]", "value": 6.25, "unit": "µg/mL"}]}
{"smiles": "CCNCCCCOc1ccc(C(C)(C)CC(C)(C)C)cc1Sc1cc(C(C)(C)CC(C)(C)C)ccc1OCCCCNCC", "values": [{"measurement": "HC50 at 1 h", "setting": "[1]", "value": 30.8, "unit": "µg/mL"}, {"measurement": "MIC", "setting": "Staphylococcus aureus [2]", "value": 1.56, "unit": "µg/mL"}, {"measurement": "MIC", "setting": "Staphylococcus aureus [3]", "value": 1.56, "unit": "µg/mL"}, {"measurement": "MIC", "setting": "Staphylococcus aureus [4]", "value": 1.56, "unit": "µg/mL"}]}
{"smiles": "CC(C)(C)CC(C)(C)c1ccc(OCC(=O)N[C@@H](CCCNC(=N)N)C(N)=O)c(Sc2cc(C(C)(C)CC(C)(C)C)ccc2OCC(=O)N[C@@H](CCCNC(=N)N)C(N)=O)c1", "values": [{"measurement": "HC50 at 1 h", "setting": "[1]", "value": 183, "unit": "µg/mL"}, {"measurement": "MIC", "setting": "Staphylococcus aureus [2]", "value": 3.12, "unit": "µg/mL"}, {"measurement": "MIC", "setting": "Staphylococcus aureus [3]", "value": 1.56, "unit": "µg/mL"}, {"measurement": "MIC", "setting": "Staphylococcus aureus [4]", "value": 3.12, "unit": "µg/mL"}]}
{"smiles": "COC(=O)[C@H](CCCCN)NC(=O)COc1ccc(C(C)(C)CC(C)(C)C)cc1Sc1cc(C(C)(C)CC(C)(C)C)ccc1OCC(=O)N[C@@H](CCCCN)C(=O)OC", "values": [{"measurement": "HC50 at 1 h", "setting": "[1]", "value": 162, "unit": "µg/mL"}, {"measurement": "MIC", "setting": "Staphylococcus aureus [2]", "value": 3.12, "unit": "µg/mL"}, {"measurement": "MIC", "setting": "Staphylococcus aureus [3]", "value": 1.56, "unit": "µg/mL"}, {"measurement": "MIC", "setting": "Staphylococcus aureus [4]", "value": 3.12, "unit": "µg/mL"}]}
{"smiles": "COC(=O)[C@H](CCCNC(=N)N)NC(=O)COc1ccc(Cl)cc1Sc1cc(Cl)ccc1OCC(=O)N[C@@H](CCCNC(=N)N)C(=O)OC", "values": [{"measurement": "HC50 at 1 h", "setting": "[1]", "value": "> 200", "unit": "µg/mL"}, {"measurement": "MIC", "setting": "Staphylococcus aureus [2]", "value": 25, "unit": "µg/mL"}, {"measurement": "MIC", "setting": "Staphylococcus aureus [3]", "value": 12.5, "unit": "µg/mL"}, {"measurement": "MIC", "setting": "Staphylococcus aureus [4]", "value": 12.5, "unit": "µg/mL"}]}
{"smiles": "CN1CCN(CCCCOc2ccc(C(C)(C)CC(C)(C)C)cc2Sc2cc(C(C)(C)CC(C)(C)C)ccc2OCCCCN2CCN(C)CC2)CC1", "values": [{"measurement": "HC50 at 1 h", "setting": "[1]", "value": "> 200", "unit": "µg/mL"}, {"measurement": "MIC", "setting": "Staphylococcus aureus [2]", "value": 12.5, "unit": "µg/mL"}, {"measurement": "MIC", "setting": "Staphylococcus aureus [3]", "value": 12.5, "unit": "µg/mL"}, {"measurement": "MIC", "setting": "Staphylococcus aureus [4]", "value": 12.5, "unit": "µg/mL"}]}
{"smiles": "CC(C)(C)CC(C)(C)c1ccc(OCCCCNC(=N)N)c(Sc2cc(C(C)(C)CC(C)(C)C)ccc2OCCCCNC(=N)N)c1", "values": [{"measurement": "HC50 at 1 h", "setting": "[1]", "value": "> 200", "unit": "µg/mL"}, {"measurement": "MIC", "setting": "Staphylococcus aureus [2]", "value": 3.12, "unit": "µg/mL"}, {"measurement": "MIC", "setting": "Staphylococcus aureus [3]", "value": 3.12, "unit": "µg/mL"}, {"measurement": "MIC", "setting": "Staphylococcus aureus [4]", "value": 3.12, "unit": "µg/mL"}]}
{"smiles": "CC(C)(C)CC(C)(C)c1ccc(OCCCCBr)c(Sc2cc(C(C)(C)CC(C)(C)C)ccc2OCCCCBr)c1", "values": [{"measurement": "HC50 at 1 h", "setting": "[1]", "value": "> 200", "unit": "µg/mL"}, {"measurement": "MIC", "setting": "Staphylococcus aureus [2]", "value": "> 50", "unit": "µg/mL"}, {"measurement": "MIC", "setting": "Staphylococcus aureus [3]", "value": "> 50", "unit": "µg/mL"}, {"measurement": "MIC", "setting": "Staphylococcus aureus [4]", "value": "> 50", "unit": "µg/mL"}]}
{"smiles": "CCOC(=O)COc1ccc(C(C)(C)CC(C)(C)C)cc1Sc1cc(C(C)(C)CC(C)(C)C)ccc1O", "values": [{"measurement": "HC50 at 1 h", "setting": "[1]", "value": "> 200", "unit": "µg/mL"}, {"measurement": "MIC", "setting": "Staphylococcus aureus [2]", "value": "> 50", "unit": "µg/mL"}, {"measurement": "MIC", "setting": "Staphylococcus aureus [3]", "value": "> 50", "unit": "µg/mL"}, {"measurement": "MIC", "setting": "Staphylococcus aureus [4]", "value": "> 50", "unit": "µg/mL"}]}
{"smiles": "Cc1cc(Sc2cc(C)cc(C(C)(C)C)c2O)c(O)c(C(C)(C)C)c1", "values": [{"measurement": "HC50 at 1 h", "setting": "[1]", "value": "> 200", "unit": "µg/mL"}, {"measurement": "MIC", "setting": "Staphylococcus aureus [2]", "value": "> 50", "unit": "µg/mL"}, {"measurement": "MIC", "setting": "Staphylococcus aureus [3]", "value": "> 50", "unit": "µg/mL"}, {"measurement": "MIC", "setting": "Staphylococcus aureus [4]", "value": "> 50", "unit": "µg/mL"}]}
{"smiles": "Oc1ccc(Cl)cc1Sc1cc(Cl)ccc1O", "note": "[FENTICLOR]", "values": [{"measurement": "HC50 at 1 h", "setting": "[1]", "value": "> 200", "unit": "µg/mL"}, {"measurement": "MIC", "setting": "Staphylococcus aureus [2]", "value": "> 50", "unit": "µg/mL"}, {"measurement": "MIC", "setting": "Staphylococcus aureus [3]", "value": "> 50", "unit": "µg/mL"}, {"measurement": "MIC", "setting": "Staphylococcus aureus [4]", "value": "> 50", "unit": "µg/mL"}]}
{"smiles": "CC(C)(C)CC(C)(C)c1ccc(O)c(Sc2cc(C(C)(C)CC(C)(C)C)ccc2OCC(=O)N[C@@H](CCCNC(=N)N)C(N)=O)c1", "values": [{"measurement": "HC50 at 1 h", "setting": "[1]", "value": "> 200", "unit": "µg/mL"}, {"measurement": "MIC", "setting": "Staphylococcus aureus [2]", "value": 12.5, "unit": "µg/mL"}, {"measurement": "MIC", "setting": "Staphylococcus aureus [3]", "value": 12.5, "unit": "µg/mL"}, {"measurement": "MIC", "setting": "Staphylococcus aureus [4]", "value": 12.5, "unit": "µg/mL"}]}
